Counter-ions that a name gives are not always drawn.
Legend:
alkaline phosphatase [1] = assay: Kinetic rate of Thymol Blue release at 600 nm from substrate with serum alkaline phosphatase; format: biochemical; conditions: for absorbance rate at 600 nm: 0.1 ml Validate A, 25° C.
Method: According to the test procedure of the subject invention, Thymol Blue Monophosphate is hydrolyzed by alkaline phosphatase to Thymol Blue in the presence of phosphorylatable diethanolamine buffer at pH 10.2. The color produced as a result thereof is proportional to enzyme present and the average change in absorbance per minute (ΔA/min) is determined at a wavelength of 600 nm.
Other amino alcohol buffers which can be phosphorylated and which can be used in this test are, for example, 2-ethylaminoethanol, 3-dimethylamino-1, 2-propanediol, 2-methylaminoethanol, those listed by Elias Amador, Clinical Chemistry, 18, 94 (1972) and the like. The amino alcohol buffer is present in an amount sufficient to raise the pH of the reaction mixture to about 10.2. The magnesium activator is used in an amount sufficient to activate the alkaline phosphatase enzyme in the sample to be tested. The concentration of magnesium ion in the substrate reagent is about 1.5 millimoles per liter. The concentration of Thymol Blue Monophosphate in the reagent is not critical but must be sufficient to permit a kinetic reaction to proceed over a period of time without the substrate being exhausted. The preferred concentration of this material is between 1 and 3 millimoles per liter. The serum sample to be tested is contacted with the substrate reagent at a given temperature which may be from about 22° to about 40° C. but preferably at 30° C. or 37° C. While the temperature affects the rate of reaction, the particular temperature used, within the limits of the stability of the sample, is not critical hereto. The average change in absorbance per minute (ΔA/min) at 600 nm is then determined in a spectrophotometer capable of reading absorbance at 600 nm and maintaining constant temperature in the cuvet compartment. By definition, one unit of alkaline phosphatase activity is the amount of enzyme that will hydrolyze one micromole of Thymol Blue Monophosphate to Thymol Blue in one minute at 30° C. The enzyme activity is calculated by the following formula: [formula] where: U/liter =units of enzyme activity per liter at 30° C.

[2] = Storage stability of substrate / reagent (absorbance at 600 nm, TLC); format: physicochemical
[3] = Solubility and physical properties; format: physicochemical
alkaline phosphatase [4] = target: T1, alkaline phosphatase (Homo sapiens, UniProt P05186); assay: Serum Alkaline Phosphatase End Point Assay; format: biochemical; conditions: 1 ml reagent + 0.1 ml serum sample, 10 minutes at 37° C., stopped with NaOH/Na2CO3
T1 construct: from tissue; host or cells: serum
T1 sequence (P05186 18-501 limits assumed): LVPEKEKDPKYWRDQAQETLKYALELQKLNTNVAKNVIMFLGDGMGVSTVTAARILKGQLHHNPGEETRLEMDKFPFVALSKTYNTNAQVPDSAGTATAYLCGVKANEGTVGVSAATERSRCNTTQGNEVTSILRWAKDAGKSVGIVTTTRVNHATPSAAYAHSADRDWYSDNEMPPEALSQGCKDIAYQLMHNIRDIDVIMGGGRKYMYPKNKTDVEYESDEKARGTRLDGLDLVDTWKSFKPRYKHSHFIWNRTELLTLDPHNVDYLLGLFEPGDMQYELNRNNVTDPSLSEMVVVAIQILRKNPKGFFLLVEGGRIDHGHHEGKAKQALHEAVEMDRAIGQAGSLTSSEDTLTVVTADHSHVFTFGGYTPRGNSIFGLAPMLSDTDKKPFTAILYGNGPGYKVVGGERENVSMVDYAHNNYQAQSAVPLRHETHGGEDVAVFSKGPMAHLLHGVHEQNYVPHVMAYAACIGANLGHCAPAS
Method: If so desired an end-point procedure may be employed for determination of serum alkaline phosphatase activity employing Thymol Blue Monophosphate as the substrate. In this instance, the test serum sample is added to the diethanolamine buffered Thymol Blue Monophosphate substrate solution and the reaction is terminated after 10 minutes time by addition of an alkaline reagent such as, for example, 0.1M NaOH and 0.1M Na2 CO3. The absorbance of the sample is read at 600 nm and the enzyme activity is determined from a standard curve prepared from a Thymol Blue standard. The standard curve is prepared by measuring absorbance of dilutions of a known standard and plotting the measured absorbance against the calculated enzyme activity in units per liter.
A substrate for measurement of alkaline phosphatase by the end-point method prepared identical to that of example XVI. One ml of the reagent was placed in a suitable 10 ml tube for measurement of the test specimen and one ml of the reagent was placed in a second tube for measurement of the reagent blank. […] The reagent blank solution was used to set the spectrophotometer at 0 absorption and the specimen tube was then measured and found to have an absorption of 0.329 at 600 nm. From a standard curve constructed from known concentrations of Thymol Blue an activity of alkaline phosphatase of 38 U/liter was determined.

acid phosphatase = assay: Acid Phosphatase - End Point Assay; format: biochemical; conditions: 1.2 mmol/liter substrate, 20 minutes 37° C.
Method: An end-point procedure may be employed for determination of acid phosphatase activity employing Thymol Blue Monophosphate as the substrate. In this instance, the test serum sample is added to a Thymol Blue Monophosphate solution buffered to a pH of about 5 and the reaction is terminated by addition of an alkaline reagent after 20 minutes reaction time. The absorbance of the sample is then read at 600 nm and the acid phosphatase enzyme activity is determined from a standard curve prepared from a Thymol Blue standard as described above.
A reagent was prepared containing 1.2 mmol/liter of Thymol Blue Monophosphate, 0.05 M Citrate buffer pH 5.0, and 0.1 % non inonic detergent, Tergitol NPX (Union Carbide Corporation).
One ml of this substrate reagent solution was placed in each of two test tubes which were warmed to 37° C. for 5 minutes. To one of the test tubes was added 0.2 ml of a serum sample containing an elevated level of acid phosphatase. The mixture was then permitted to stand at 37° C. for 20 minutes at which time 3.0 mls of alkali reagent (0.1 m Na2 CO3 + 0.1M NaOH) was added to stop the reaction. […]
The absorption of each solution was measured at 600 nm against distilled water. […] From standard curve, the acid phosphatase activity of the serum was calculated to be 6.5 U/liter.

[5] = substrate (not freeze-dried) in DEA buffer

Structure (SMILES): Cc1cc(O)c(C(C)C)cc1C1(c2cc(C(C)C)c(OP(=O)(O)O)cc2C)OS(=O)(=O)c2ccccc21 (stereo not drawn) [IV, Thymol Blue Monophosphate in Diethanolamine Buffer]
- rate at 600 nm (alkaline phosphatase [1]; 2.9 ml test volume in 1.0M DEA buffer pH 10.2, 0.1 ml Lederzyme Control Sera, 30° C.): 0.037 min⁻¹
- absorbance at 600 nm of buffered substrate, initial ([2]; 2.9 ml test volume, 1.0M DEA buffer pH 10.2, fresh): 0.131
- frozen buffered substrate after storage (absorbance) ([2]; frozen, 6 months): remained unchanged
- activity toward alkaline phosphatase after storage ([2]; refrigerated at 2° to 8° C. over 6 months): remained unchanged
- absorbance at 600 nm of buffered substrate after storage ([2]; refrigerated at 2° to 8° C. over 6 months, increase due to gradual hydrolysis): approximately 0.550

Structure (SMILES): Cc1cc(O)c(C(C)C)cc1C1(c2cc(C(C)C)c(OP(=O)(O)O)cc2C)OS(=O)(=O)c2ccccc21 (stereo not drawn) [XI, Thymol Blue Monophosphate Sodium Salt Solution]
- absorbance rate at 600 nm (alkaline phosphatase [1]; [5]): 0.0577 min⁻¹

Structure (SMILES): Cc1cc(O)c(C(C)C)cc1C1(c2cc(C(C)C)c(OP(=O)(O)O)cc2C)OS(=O)(=O)c2ccccc21 (stereo not drawn) [XIII, Thymol Blue Monophosphate, Tris (hydroxymethyl)aminomethane Salt]
- substrate activity with alkaline phosphatase (alkaline phosphatase [1]; aqueous solution of the salt, clear amber liquid): potent substrate activity
- absorbance rate at 600 nm (alkaline phosphatase [1]; freeze-dried reagent reconstituted): 0.0552 min⁻¹
- absorbance rate at 600 nm (alkaline phosphatase [1]; [5]): 0.0600 min⁻¹

Structure (SMILES): Cc1cc(O)c(C(C)C)cc1C1(c2cc(C(C)C)c(OP(=O)(O)O)cc2C)OS(=O)(=O)c2ccccc21 (stereo not drawn) [VIII, Sodium Thymol Blue Monophosphate Solution]
- rate at 600 nm (alkaline phosphatase [1]; 1 ml substrate solution + 1 ml 0.6 M DEA buffer pH 10.2, 0.1 ml Validate A, temperature not given): 0.0758 min⁻¹
- solubility in absolute ethanol ([3]; yellow orange solid): slightly soluble
- solubility in water ([3]; yellow orange solid): readily soluble

Structure (SMILES): Cc1cc(O)c(C(C)C)cc1C1(c2cc(C(C)C)c(OP(=O)(O)O)cc2C)OS(=O)(=O)c2ccccc21 (stereo not drawn) [III, Phosphorylated Thymol Blue]
- absorbance rate (ΔA/min.) at 600 nm (alkaline phosphatase [1]; 2 mg solid in 2.9 ml diethanolamine buffer pH 10.2, 0.1 ml Validate A): 0.0180 min⁻¹
- absorbance rate (ΔA/min.) at 600 nm (alkaline phosphatase [1]; 5 mg sample in diethanolamine buffer pH 10.2, 0.1 ml Validate A): 0.028 min⁻¹

Structure (SMILES): Cc1cc(O)c(C(C)C)cc1C1(c2cc(C(C)C)c(OP(=O)(O)O)cc2C)OS(=O)(=O)c2ccccc21 (stereo not drawn) [XII, Thymol Blue Monophosphate Ammonium Salt]
- absorbance rate at 600 nm (alkaline phosphatase [1]; substrate (not freeze-dried) in DEA buffer, Monophosphate Ammonium Salt): 0.0486 min⁻¹

Structure (SMILES): Cc1cc(O)c(C(C)C)cc1C1(c2cc(C(C)C)c(OP(=O)(O)O)cc2C)OS(=O)(=O)c2ccccc21 (stereo not drawn) [Thymol Blue Monophosphate]
- change in absorbance (ΔA/min) at 600 nm (alkaline phosphatase [1]; 2 ml substrate 1.5 mmol/liter, DEA buffer pH 10.2, MgCl2, 0.05 ml serum to be tested, 30° C.): 0.022
- absorption at 600 nm of specimen tube against reagent blank (alkaline phosphatase [4]): 0.329
- absorption at 600 nm of test serum sample (acid phosphatase; citrate buffer pH 5.0, 0.2 ml serum with elevated acid phosphatase, against distilled water): 0.364
- net increase in absorption over blank (acid phosphatase; citrate buffer pH 5.0, 0.2 ml serum): 0.253 absorption units

Structure (SMILES): Cc1cc(O)c(C(C)C)cc1C1(c2cc(C(C)C)c(OP(=O)(O)O)cc2C)OS(=O)(=O)c2ccccc21 (stereo not drawn) [II, Thymol Blue Monophosphate (AMPD Salt)]
- performance as substrate for alkaline phosphatase (release of Thymol Blue) (alkaline phosphatase [1]; pH 10.2 diethanolamine buffer with magnesium chloride, sera containing alkaline phosphatase): performed as a substrate for alkaline phosphatase

Structure (SMILES): Cc1cc(O)c(C(C)C)cc1C1(c2cc(C(C)C)c(OP(=O)(O)O)cc2C)OS(=O)(=O)c2ccccc21 (stereo not drawn) [X, Thymol Blue Monophosphate Cyclohexylammonium Salt]
- absorbance rate at 600 nm (alkaline phosphatase [1]; [5]): 0.0427 min⁻¹
- stability of solid by TLC ([2]; after one month standing at room temperature): Thymol Blue was detected on TLC indicating decomposition
- hygroscopicity ([3]; orange solid product): hygroscopic

Structure (SMILES): Cc1cc(O)c(C(C)C)cc1C1(c2cc(C(C)C)c(OP(=O)(O)O)cc2C)OS(=O)(=O)c2ccccc21 (stereo not drawn) [I, Thymol Blue Monophosphate, Sodium Salt Solution]
- rate of reaction at 600 nm (alkaline phosphatase [1]; 2 ml working reagent (DEA buffer pH 10.2) + 50 μl Validate A control serum, 30° C.): 0.0308 min⁻¹

— patent US4045290A, “Diagnostic method and compounds for use therewith” (Princeton Biomedix Incorporated, priority 1976, dated 1977)
